Assays:
[1] = system: hair cells of the neuromasts within the lateral line organ; test: In vivo labeling of neuromasts in zebrafish larvae; design: species or system zebrafish (Danio rerio); conditions: 4–6 dpf larvae; for fold increase in fluorescence intensity within the neuromasts: co-labeling with DiAsp; for normalized fluorescence of the neuromasts to the background fluorescence, mean and standard deviation: neuromasts identified with DiAsp
Protocol: (§1) For the neuromast labeling experiments, wild-type 4–6 days post fertilization (dpf) zebrafish larvae were incubated in 200 μL of E3 medium containing different doses of the SiR probes (500–5000 nM), 2.5 μM 4-(4-diethylaminostyryl)-1-methyl-pyridinium-iodid (DiAsp, Sigma, D3418), which specifically labels hair cells in the lateral line in 0.5% DMSO for 30 min (35). Next, washing and anesthesia were achieved by placing the larvae in a 35 mm imaging dish (MolBiTec, Imaging dish 1.5) which contained 500 μL of E3 medium with 168 mg/L MS-222 (Tricaine Mehanesulfonate, Sigma) for 10 min. After removing the solution, fish were side-embedded in the imaging dish using 500 μL of 0.75% low-melting temperature agarose (Sigma, A4018). Wide-field imaging was done using the Zeiss Axio Observer fluorescence microscope (LD A-Plan 10× objective, NA = 0.25), and confocal imaging was done using a Zeiss LSM 800 confocal fluorescence microscope (LD LCI Plan-Apochromat 25× objective, NA = 0.8).

zebrafish larvae = test: Zebrafish startle reflex, tolerability and brain penetration with bath-applied probe; format: in vivo, zebrafish (Danio rerio)
Protocol: as §1
For the behavioral analysis, wild-type 4–6 dpf zebrafish larvae were placed individually into custom-built sound delivery system described in a previous publication.[36] For acoustic stimulation, we used a 90 dB stimulus and recorded the subsequent behavioral responses using a high-speed camera (xiQ USB3 vision) at a frame rate of 500 fps using custom scripts written in Python. The camera was placed 30 cm above the sound delivery system. The latency of the startle reflex was quantified manually by using an LED flash (780 nm wavelength) in parallel with the time of stimulus delivery. Escape responses were quantified manually, where we considered a short-latency startle response between 2 and 16 ms and a long-latency startle response above 16 ms.

[2] = system: human parathyroid adenomas; test: Ex vivo labeling of surgically resected human parathyroid adenomas
Protocol: The part of the study involving human tissues has been registered at clinicaltirals.gov and can be retrieved under the ID: NCT03831620. The study was approved by the ethics commission of canton Bern, Switzerland (KEKBE 2018–02218). Written informed consent was obtained from all patients. Human parathyroid tissues were surgically resected and were immediately put on dry ice and stored at −80 °C. The tissues were thawed at 4 °C and were washed with PBS thoroughly. The labeling of the tissues was achieved using 500 nM EvoSiR4 for 30 min in PBS containing 0.1% BSA. After labeling, the tissues were washed twice with PBS containing 0.1% BSA. For evocalcet competition experiments, the tissues were coincubated with EvoSiR4 and evocalcet in a 1:5 molar ratio for 30 min and then washed twice with PBS containing 0.1% BSA. The images were acquired using an IVIS Spectrum in vivo imaging system with a λex of 780 nm and λem of 840 nm for the autofluorescence (ICG channel) and with a λex of 650 nm and λem of 670 nm for the EvoSiR label (Cy5 channel).

human CaSR = target: T1, human CaSR (Homo sapiens, UniProt P41180); test: FLIPR-based functional CaSR calcium assay in HCAR cells; format: cell-based; conditions: 5 min incubation of HCAR cells, 0.1% BSA
T1 construct: host or cells: CCL39 hamster lung fibroblasts stably transfected (HCAR), Geneticin selection
T1 sequence (P41180 20-1078): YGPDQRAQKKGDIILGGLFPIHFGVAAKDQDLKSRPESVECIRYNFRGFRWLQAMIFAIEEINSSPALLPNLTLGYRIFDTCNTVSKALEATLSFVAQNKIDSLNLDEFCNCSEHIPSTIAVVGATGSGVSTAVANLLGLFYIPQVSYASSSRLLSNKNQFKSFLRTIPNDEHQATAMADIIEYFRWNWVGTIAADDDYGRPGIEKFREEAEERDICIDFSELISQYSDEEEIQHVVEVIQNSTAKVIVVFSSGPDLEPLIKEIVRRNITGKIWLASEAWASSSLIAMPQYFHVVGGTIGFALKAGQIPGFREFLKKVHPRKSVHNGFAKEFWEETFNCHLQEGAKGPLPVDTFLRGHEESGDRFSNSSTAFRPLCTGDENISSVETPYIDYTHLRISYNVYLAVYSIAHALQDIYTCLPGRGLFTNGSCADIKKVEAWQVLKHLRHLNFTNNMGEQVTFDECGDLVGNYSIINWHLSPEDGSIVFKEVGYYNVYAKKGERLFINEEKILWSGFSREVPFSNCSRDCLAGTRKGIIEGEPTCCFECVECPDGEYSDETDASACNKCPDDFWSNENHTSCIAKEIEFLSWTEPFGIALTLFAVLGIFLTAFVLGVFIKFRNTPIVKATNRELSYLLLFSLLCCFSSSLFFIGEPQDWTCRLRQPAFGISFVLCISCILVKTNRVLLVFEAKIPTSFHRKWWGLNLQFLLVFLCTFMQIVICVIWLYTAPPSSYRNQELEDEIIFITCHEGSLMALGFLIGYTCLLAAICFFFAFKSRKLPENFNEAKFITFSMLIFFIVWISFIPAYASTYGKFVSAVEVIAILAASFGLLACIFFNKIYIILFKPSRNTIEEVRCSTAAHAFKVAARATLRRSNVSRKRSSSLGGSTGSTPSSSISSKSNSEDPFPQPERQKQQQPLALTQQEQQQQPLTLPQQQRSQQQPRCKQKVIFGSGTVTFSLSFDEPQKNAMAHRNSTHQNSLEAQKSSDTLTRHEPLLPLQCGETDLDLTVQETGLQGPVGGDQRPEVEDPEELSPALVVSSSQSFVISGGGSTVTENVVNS

[3] = Spectrofluorometric fluorescence in PBS and effect of pH; format: physicochemical; conditions: 750 nM in PBS, peak fluorescence at 670
Protocol: Spectrofluorometric measurements were carried out by using the Agilent Cary Eclipse instrument. The voltage of the photomultiplier tube (PMT) was set to 600 for EvoSiR4 and EvoSiR6, and for 500 for SiR (4). Fluorescence of the probes was measured at concentrations ranging from 30 to 3000 nM in PBS containing various amounts of bovine serum albumin (BSA) (Sigma, A7906). Quenching experiments for the calculation of BSA binding were performed by adding a 1:1 molar ratio of tannic acid dissolved in ddH2O (Sigma, 403040) to the solution prior to measuring fluorescence.

CYP2D6 = system: CYP2D6; design: method as in PMID 29724589; conditions: cited from earlier work

Structure (SMILES) | fold increase in fluorescence intensity within the neuromasts [1] [fold] | normalized fluorescence of the neuromasts to the background fluorescence, mean and standard deviation [1] | effect on startle responses (percentage elicited, ratio of short-latency escapes, latency) (zebrafish larvae; bath-applied 5 and 10 μM, acoustic stimulation) | entry into zebrafish CNS (zebrafish larvae; bath-applied, Tol056 strain, confocal microscopy) | concentration beyond which lethal (zebrafish larvae; bath-applied, larvae) [µM] | concentration up to which no effect on basic locomotion capabilities (zebrafish larvae; bath-applied, larvae) | concentration above which marked increase in tissue fluorescence ([2]; 650 nm excitation) [nM] | EC50 (human CaSR; EC50, 1× wash, 1× wash) [µM] | EC50 (human CaSR; EC50, 3× wash, 3× wash) [µM] | EC50 (human CaSR; EC50, 5× wash, 5× wash) [µM] | EC50 (human CaSR; EC50, no wash, no wash) [µM] | decrease in fluorescence at pH above 10 [3] [%] | CYP2D6 inhibition (CYP2D6) | decrease in tissue fluorescence upon evocalcet competition ([2]; 500 nM EvoSiR4 co-administered with 2.5 μM evocalcet) [%]
Cc1cc(C(=O)NCCCCNC(=O)Cc2ccc(N3CC[C@H](N[C@H](C)c4cccc5ccccc45)C3)cc2)ccc1C1=C2C=CC(=[N+](C)C)C=C2[Si](C)(C)c2cc(N(C)C)ccc21 [EvoSiR4] | 5.7 | 5.71 ± 4.4 | no significant difference | does not enter the zebrafish CNS | > 20 | up to 10 μM | > 500 | 0.38 ± 0.24 | 0.62 ± 0.31 | 0.33 ± 0.21 | 0.037 ± 0.008 | 50 | – | –
C[C@@H](N[C@H]1CCN(c2ccc(CC(=O)O)cc2)C1)c1cccc2ccccc12 [evocalcet] | – | – | – | – | – | – | – | – | – | – | – | – | no direct CYP2D6 inhibition | 64
Cc1cc(C(=O)NCCCCCCNC(=O)Cc2ccc(N3CC[C@H](N[C@H](C)c4cccc5ccccc45)C3)cc2)ccc1C1=C2C=CC(=[N+](C)C)C=C2[Si](C)(C)c2cc(N(C)C)ccc21 [EvoSiR6] | 5.6 | 5.6 ± 3.1 | – | – | – | – | – | – | – | – | – | – | – | –
